The source of these data is article PMC5431684, “Zwitterionic near infrared fluorescent agents for noninvasive real-time transcutaneous assessment of kidney function” (Chemical Science, 2017).

“And” between values parts separate entries of the source, which are not always exact repeats. Equal values may be shown once. Read-outs that look alike come from different tables or passages of the source.

The test system of one series is plasma protein. As to conditions: cited from earlier work.
The nature of series [1]: Transcutaneous measurement of elimination kinetics in healthy rats. Type of series: in vivo, Sprague Dawley rats. Conditions: for Transcutaneous elimination (clearance) curve, in words: i.v. injection. The protocol:
(§1) The principles and methods of the transcutaneous technique are described in Fig. S10. ^† Firstly, as a control, IRDye800CW was chosen to be injected intravenously into rats and its elimination curves were measured transcutaneously. […] A long retention time of IRDye800CW in vivo was attributed to its higher PPB (41%) and negative charge feature, leading to skin accumulation and slow renal excretion. […] To assess whether the anionic agent ABANCY-HPβCD is reabsorbed or secreted by organic anion transporter (OAT) proteins in the kidney tubules, probenecid, an inhibitor of OAT proteins,[18] was administered (30 min prior to injection of ABANCY-HPβCD) to block tubular reabsorption and the secretion pathway, then, elimination curves were measured for the same rats. […] We also measured the cationic HPβCD based agent in the same manner and the results are similar to those of anionic HPβCD based agents. Next, the free dye ABZWCY was injected intravenously and its elimination curves were also recorded transcutaneously. […] This is in agreement with their similar PPB values (∼20%). To determine whether ABZWCY has tubular reabsorption or secretion in addition to filtration, probenecid was administered to block tubular reabsorption and the secretion pathway. […]
(§2) 8. Principle and methods for transcutaneous measurements of kidney function The transcutaneous assessment of renal function is based on the measurement of the fluorescence signal of a marker through the skin. A miniaturized transcutaneous device is comprised of two light emitting diodes (LEDs) and one photodiode (Figure S10a and 10b). The LEDs can blink every few seconds to excite a fluorescent marker using excitation wavelength of 700 nm. The fluorescent signal will be recorded by detecting the emission intensity of a fluorescent marker at 790 nm. Data are stored in the device and can be read out after measurement.[6] The clearance half-life of fluorescent agents was calculated by software, which was developed by the Institute of Medical Technology of the University of Heidelberg.[7] For this a 3-exponential function was fitted to the measured elimination curve, the peak of the curve was supposed to be 100%. Also a 1-exponential function was applied from 50% to 15% of the peak […]
(§3) Figure. S10. (a) Transcutaneous device and battery used for the transcutaneous measurement, the photodiodes and LEDs in the device. (b) A schematic overview of the excitation and emission light between a transcutaneous device and fluorescent agents in capillary vessel after injection. (c-g) The fixation procedures of a transcutaneous device on the skin and measurements in a […]
(§4) Healthy Sprague Dawley rats (Body weight: 250-300 g, 8-10 weeks) were anesthetized for a short period with Isoflurane (Forene®, AbbVie, Illinois, USA; Dosage: 5 %; Flow(O2): 5 L/min) in order to fix the transcutaneous device on the back of rats. The back of the animals was depilated with an electric shaver (Figure 10c-g). After a baseline measurement for around 5 min, a fluorescent agent in saline (DeltaSelect, GmbH, Rimbach, Germany) was injected as a bolus by tail vein injection. […] The devices were removed and the data were read out after 120 min of transcutaneous measurement. The clearance half-life of fluorescent agents was calculated by software. […]

Series [2] in a line: Urinary recovery of injected dose (metabolic cages). Type of series: in vivo, Sprague Dawley rats. The protocol: With this in mind, we investigated the recoveries of injected doses using in vivo experiments with metabolic cages. High urinary recoveries were determined for the free dye ABZWCY and its mixture with HPβCD (99.4 ± 4.8% and 96.5 ± 5.8%, respectively, Fig. 4 and Tables 2 and S6 ^†). Similar tendencies of urinary recoveries of ABZWCY-HPβCD and AAZWCY-HPβCD with values of 97 ± 3.9% and 103.3 ± 4.2%, respectively, were also observed (Fig. 4, and Tables 2 and S7 ^†). Indeed, urinary recoveries of the given dose were almost completed at 9 h post-injection for ABZWCY-HPβCD and AAZWCY-HPβCD, which is faster than the free dye ABZWCY and in agreement with their shorter clearance half-life.
All experiments were conducted in accordance with the German Animal Protection Law and approved by the local authority (Regierungspräsidium Nordbaden, Karlsruhe Germany in agreement with EU guideline 2010/63/EU). […]
10. Urinary recovery of injected dose in urine studies
Recovery of the injected dose in urine studies were conducted in conscious, healthy Sprague Dawley rats (Body weight: 250-300 g). The corresponding test agents with corresponding dosage (ABZWCY: 2.5 mg/kg, ABZWCY mixed with HPβCD: 2.5 mg/kg mixed with 22.5 mg/kg (HPβCD), ABZWCY-HPβCD and AAZWCY-HPβCD: 50 mg/kg) were administered by tail vein injection. Urine was collected using metabolic cages in intervals of 1, 2, 3, 6, 9, 24 h after intravenous injection of agents into rats. The samples were stored at -20°C until they were analyzed. The urine samples were centrifuged for 8 min at 13000 ×g and then filtered by 0.22 μm syringe filter. A series of working solution of each agent with concentrations between 0.02 mg/mL and 2 mg/mL were prepared. Appropriate volumes of the working solutions were added to blank urine and fluorescent intensity of those mixtures were measured in order to obtain an external calibration curve. Quantification of each of the agents in urine at each time point was performed via HPLC analysis and fluorescence intensity detection. The concentration in urine at each time point was calculated based on the external calibration standards curve between fluorescence intensity and the concentration of each of the agents.
Considering biological components within urine may interfere with the fluorescent intensity of agents, the fluorescent intensity of agent were tested to study whether there is difference in urine and PBS, the emission intensity and calibration curve are compared (Figure S11). The results […]
This slightly difference can explained the urinary recoveries have some trial a little over 100% (Table S6 and S7), which can be found in other literatures studies. […]

Series [3] relates to organic anion transporter (OAT) proteins. Briefly: Transcutaneous measurement of elimination kinetics in healthy rats. Format: in vivo, Sprague Dawley rats. Conditions: Sprague Dawley, rat, skin (transcutaneous fluorescence signal), ip; healthy rats, 50 mg/kg probenecid i.p. 30 min prior to injection, transcutaneous; read-out: T 1/2 with probenecid (clearance half-life). The protocol: as §1, §2, §3, §4

The test system of series [4] is Sprague Dawley rat plasma. Briefly: Plasma protein binding (PPB) by equilibrium dialysis. Format: in vitro ADME. Conditions: equilibrium dialysis of PBS against dye-plasma stock, 37°C, 24 hours, UV absorption. An excerpt: (§5) The interaction between fluorescent dyes and plasma proteins is particularly important as it affects the capability of the dyes as GRF agents in the following aspects: bio-distribution and clearance pathways as well as the rate of excretion in vivo.[15] […] ABCACY and AACACY display 54.5% and 60% PPB, respectively. […] Additionally, PPB is not only dependent on the dye hydrophilicity, but is also related to the molecular charge number and distribution. Since albumin is alkalotic, acidic agents will preferentially bind to albumin, then to lipoprotein after albumin becomes saturated. Basic agents will bind to the acidic alpha-1 acid glycoprotein.[17] Thus, anionic and cationic compounds are more inclined to bind to proteins than zwitterionic compounds. Therefore, we will mainly focus on zwitterionic compounds in the following parts.
5. […]
(§6) PPB measurements were performed by equilibrium dialysis of PBS against dye-protein stock solution (or control stock solution) using a two-chamber dialysis set-up. After 24 hours the absorption of each of the dyes or agents in PBS and plasma were determined in three independent measurements by both absorption spectroscopy and fluorescence spectroscopy in a microplate reader. The concentrations of each of the dyes or agents were calculated on the basis of the corresponding molar absorption coefficients. […] PPB in percent [%] was determined by averaging three independent measurements and following the equation of Lambert Beer law: […]
(§7) ABZWCY-HPβCD (1 mg/mL in PBS), SD rat plasma (50% in PBS), ABZWCY-HPβCD (1 mg/mL) mixed with SD rat plasma (50% in PBS) were prepared and filtered through a sterile 0.22 μm filter before analysis. […] The measurements were carried out in quadratic cells and analyzed the scattered light at an angle of 90° at a controlled temperature (25 °C). […] The apparent hydrodynamic radius was calculated according to the Stokes-Einstein […]

Experiment in series [5]: as above
Format: in vitro ADME, Sprague Dawley rat. As to conditions: Sprague Dawley, rat, plasma (Li-Heparin), equilibrium dialysis of PBS against dye-plasma stock, 37°C, UV absorption.
From the text: as §5
5. […]
as §6, §7

With `CC1(C)C(/C=C/C=C/C=C/C=C2\N(CCCCS(=O)(=O)O)c3ccc4ccccc4c3C2(C)C)=[N+](CCCCS(=O)(=O)[O-])c2ccc3ccccc3c21` [ICG, indocyanine green], in the series with plasma protein, the PPB is recorded as 99%.
Regarding `CNC(=O)c1c(I)c(NC(C)=O)c(I)c(C(=O)O)c1I` [iothalamate], the PPB in the series on plasma protein ('gold standard' renal function agent) is given as 9.5%.
On to `CC1(C)C(/C=C/C2=C(Oc3ccc(S(=O)(=O)O)cc3)C(=C/C=C3/N(CCCCS(=O)(=O)O)c4ccc(S(=O)(=O)[O-])cc4C3(C)C)/CCC2)=[N+](CCCCCC(=O)O)c2ccc(S(=O)(=O)O)cc21` [IRDye800CW, reference compound], for which the “Transcutaneous elimination (clearance) curve, in words” value in series [1] (healthy rats) is “no decay even at 90 min post-injection”. The PPB with plasma protein (previous study of the authors) is 41%.
With `CC1(C)C(/C=C/C2=C(Nc3ccc(CCC(=O)O)cc3)C(=C/C=C3/N(CCC[N+](C)(C)C)c4ccc(S(=O)(=O)O)cc4C3(C)C)/CCC2)=[N+](CCC[N+](C)(C)C)c2ccc(S(=O)(=O)O)cc21` [ABZWCY], the dose excreted in series [2] (Sprague Dawley, rat, urine, iv, 2.5 mg/kg, healthy rats, i.v., mean ± SD, n = 3, read-out: Urinary recovery in 24 h) came out at 99.4 ± 4.8%. Further, the dose excreted at 1 h in series [2] (Sprague Dawley, rat, urine, iv, 2.5 mg/kg, individual rats, cumulative, time 1 h after i.v. injection) was found to be 46.7%. In series [2] (Sprague Dawley, rat, urine, iv, 2.5 mg/kg, individual rats, cumulative, time 2 h after i.v. injection), this compound showed a dose excreted at 2 h of 65%. Also, the dose excreted at 6 h in series [2] (Sprague Dawley, rat, urine, iv, 2.5 mg/kg, individual rats, cumulative, time 6 h after i.v. injection) came to 87.2%. In series [2] (Sprague Dawley, rat, urine, iv, 2.5 mg/kg, individual rats, cumulative, time 9 h after i.v. injection), this compound registered a dose excreted at 9 h of 96.9%. Moreover, in series [2] (Sprague Dawley, rat, urine, iv, 2.5 mg/kg, individual rats, cumulative, time 24 h after i.v. injection), the dose excreted at 24 h amounted to 98.3%. For the same compound, the “Urinary recovery at 1 h” value in series [2] (individual rats, cumulative, time 1 h after i.v. injection) is 53.33% and 49.29%. Moreover, in series [2] (individual rats, cumulative, time 2 h after i.v. injection), the “Urinary recovery at 2 h” value turned out to be 73.06%. Also, in series [2] (individual rats, cumulative, time 6 h after i.v. injection), the “Urinary recovery at 6 h” value is 81.95% and 89.05%. Moreover, the “Urinary recovery at 9 h” value in series [2] (individual rats, cumulative, time 9 h after i.v. injection) is reported as 86.39%. In series [2] (individual rats, cumulative, time 24 h after i.v. injection), the “Urinary recovery at 24 h” value was 93.3% and 106.6%. Also, the half-life in series [3] amounted to 48.7 ± 5.4 min; in series [1] (Sprague Dawley, rat, skin (transcutaneous fluorescence signal), iv, 2.5 mg/kg, healthy rats 8-10 weeks, i.v. bolus, transcutaneous measurement, read-out: T 1/2 without probenecid (clearance half-life)), 52.6 ± 8.8 min. Moreover, the “Tubular reabsorption or secretion in the kidneys (from probenecid effect)” value in series [1] (healthy rats, half-life with versus without probenecid) is on record as “tubular reabsorption or secretion is a minor factor”. For the same compound, the “Transcutaneous elimination (clearance) curve, in words” value in series [1] (healthy rats) is recorded as “did not return to background levels at 2 h post-injection”. Further, the PPB in series [4] worked out at 19%. This compound also showed a free fraction (fraction unbound) at 24 h, 0.2 mg/mL in series [5] of about 0.8.
In turn, `CC1(C)C(/C=C/C2=C(Nc3ccc(CCN=[N+]=[N-])cc3)C(=C/C=C3/N(CCC[N+](C)(C)C)c4ccc(S(=O)(=O)O)cc4C3(C)C)/CCC2)=[N+](CCC[N+](C)(C)C)c2ccc(S(=O)(=O)O)cc21` [AAZWCY] showed a fraction unbound at 24 h, 0.2 mg/mL in series [5] of 0.843.
